From ChEMBL document CHEMBL1137694, “Predicting anti-HIV activity of 1,3,4-thiazolidinone derivatives: 3D-QSAR approach” (Eur J Med Chem, 2009)

What follows are compounds tested on Human immunodeficiency virus (assay: Antiviral activity against HIV assessed as reduction in virus-induced cytopathic effect by XTT assay). Conditions: Human immunodeficiency virus 1, read-out: pEC50 (converted).
Type: functional, organism-based
For Cc1cc(C)nc(N2C(=O)CSC2c2c(F)cccc2F)c1 (configuration not stated), the EC50 was 58.9 nM.
O=C1CSC(c2c(F)cccc2Cl)N1c1cccc(Br)n1 (configuration not stated) showed an EC50 of 63.9 nM.
In the case of Cc1cccc(N2C(=O)CSC2c2c(F)cccc2F)n1 (configuration not stated), the EC50 was 81.9 nM.
O=C1CSC(c2c(F)cccc2F)N1c1cccnc1 (configuration not stated) showed an EC50 of 10.5 nM.
Compound O=C1CSC(c2c(F)cccc2F)N1c1cccc(Br)n1 (configuration not stated) has an EC50 of 29.9 nM.
Cc1cc(C)nc(N2C(=O)CSC2c2c(Cl)cccc2Cl)c1 (configuration not stated) showed an EC50 of 89.8 nM.
Work on Cc1cc(O)nc(N2C(=O)CSC2c2c(Cl)cccc2Cl)n1 (configuration not stated) yielded an EC50 of 30.4 nM.
In the case of COc1cc(C)nc(N2C(=O)CSC2c2c(Cl)cccc2Cl)n1 (configuration not stated), the EC50 was 23.9 nM.
For COc1cc(C)nc(N2C(=O)CSC2c2c(F)cccc2Cl)n1 (configuration not stated), the EC50 was 55.9 nM.
Cc1cc(C)nc(N2C(=O)CSC2c2c(F)cccc2Cl)n1 (configuration not stated) gave an EC50 of 37.9 nM.
Cc1cc(C)nc(N2C(=O)CSC2c2c(Cl)cccc2Cl)n1 (configuration not stated) was tested, and the EC50 was 17 nM.
In the case of Cc1cccc(N2C(=O)CSC2c2c(Cl)cccc2Cl)n1 (configuration not stated), the EC50 was 43.9 nM.
CC1CC(C)C1N1C(=O)CSC1c1c(F)cccc1Cl (configuration not stated) gave an EC50 of 85.7 nM.
With COc1cccc(OC)c1C1SCC(=O)N1c1cc(Br)ccn1 (configuration not stated) the EC50 was 44.9 nM.
Compound COc1cccc(OC)c1C1SCC(=O)N1c1cc(C)ccn1 (configuration not stated) has an EC50 of 49.9 nM.
CC1CCC1N1C(=O)CSC1c1c(Cl)cccc1Cl (configuration not stated) showed an EC50 of 79.8 nM.
Cc1cccnc1N1C(=O)CSC1c1c(F)cccc1F (configuration not stated) gave an EC50 of 18.7 nM.
With COc1cccc(F)c1C1SCC(=O)N1c1cc(Br)ccn1 (configuration not stated) the EC50 was 33.9 nM.
In the case of Cc1cccc(N2C(=S)CSC2c2c(Cl)cccc2Cl)n1 (configuration not stated), the EC50 was 86.9 nM.
For Cc1cc(Cl)nc(N2C(=O)CSC2c2c(Cl)cccc2Cl)n1 (configuration not stated), the EC50 was 19.3 nM.
COC1CCC1N1C(=O)CSC1c1c(F)cccc1F (configuration not stated) gave an EC50 of 84.6 nM.
Cc1ccnc(N2C(=O)CSC2c2c(Cl)cccc2Cl)n1 (configuration not stated) was tested, and the EC50 was 43.9 nM.
